Results: patent publication US12507703B2, “Methods, devices and compositions for preserving human milk” (The Trustees of Princeton University, priority 2023, dated 2025)
“And” between values parts separate entries of the source, which are not always exact repeats. Equal entries are not always repeated.

Each compound was assayed on lipase (assay: Lipase/lipolysis assay (EnzChek Lipase Substrate, quenched BODIPY-fatty acid conjugate) on stored human milk; also: test concentration or dose not given here).
With `CCCCCCCC/C=C\CCCCCCCC(=O)O[C@H]1CC[C@@]2(C)C(=CC[C@H]3[C@@H]4CC[C@H]([C@H](C)CCCC(C)C)[C@@]4(C)CC[C@@H]32)C1` [Cholesteryl oleate] the “Lipase (RFU)” value was 988.5488 RFU. `C[C@H](CCC(=O)O)[C@H]1CC[C@H]2[C@@H]3[C@H](O)C[C@@H]4C[C@H](O)CC[C@]4(C)[C@H]3C[C@H](O)[C@]12C` [Cholic acid (sodium)] was tested, and the “Lipase (RFU)” value was 828.0633 RFU and 816.2579 RFU. `C[C@H](CCC(=O)O)[C@H]1CC[C@H]2[C@@H]3[C@H](O)C[C@@H]4C[C@H](O)CC[C@]4(C)[C@H]3C[C@H](O)[C@]12C` [Cholic acid] was tested, and the “Lipase (RFU)” value was 761.6522 RFU and 886.7213 RFU. For `C[N+](C)(C)CCO.O=C([O-])C(O)C(O)C(=O)O` (stereo not shown) [Choline (bitartrate)], the “Lipase (RFU)” value was 1263.191 RFU and 1046.984 RFU. With `C=C(O[C@@H]1C=C(C(=O)O)C=C[C@H]1O)C(=O)O` [Chorismic Acid] the “Lipase (RFU)” value was 935.6375 RFU. With `Cc1cc(O)c2c(c1)C(=O)c1cccc(O[C@@H]3O[C@H](CO)[C@@H](O)[C@H](O)[C@H]3O)c1C2=O` [Chrysophanol 8-O-glucoside] the “Lipase (RFU)” value was 988.4419 RFU. In the case of `COc1cc(-c2oc3cc(OC)c(OC)c(O)c3c(=O)c2OC)ccc1O` [Chrysosplenetin], the “Lipase (RFU)” value is reported as 1129.025 RFU. For `O=c1ccc2cc(O)c(O[C@@H]3O[C@H](CO)[C@@H](O)[C@H](O)[C@H]3O)cc2o1` [Cichoriin], the “Lipase (RFU)” value was 714.076 RFU. With `Oc1cc(O)c2c(c1)O[C@@]1(c3ccc(O)c(O)c3)Oc3cc(O)c4c(c3[C@@H]2[C@H]1O)O[C@H](c1ccc(O)c(O)c1)[C@H](O)[C@H]4c1c(O)cc(O)c2c1O[C@H](c1ccc(O)c(O)c1)[C@H](O)C2` [Cinnamtannin B-1] the “Lipase (RFU)” value was 1061.374 RFU. With `C[N+](C)(C)CCOP(=O)([O-])OP(=O)([O-])OC[C@H]1O[C@@H](n2ccc(N)nc2=O)[C@H](O)[C@@H]1O.[Na+]` [Citicoline (sodium)] the “Lipase (RFU)” value was 965.9573 RFU. With `Nc1ncnc(N[C@@H]2O[C@H](CO)[C@@H](O)[C@H]2O)c1[N+](=O)[O-]` [Clitocine] the “Lipase (RFU)” value was 1144.133 RFU. With `COC1=C(OC)C(=O)C(C/C=C(\C)CC/C=C(\C)CC/C=C(\C)CC/C=C(\C)CC/C=C(\C)CC/C=C(\C)CC/C=C(\C)CC/C=C(\C)CCC=C(C)C)=C(C)C1=O` [Coenzyme Q9] the “Lipase (RFU)” value was 1106.833 RFU. `CC(O)CN` (stereo not shown) [Compound 1-Aminopropan-2-ol, 1-Aminopropan-2-ol] was tested, and the “Lipase (RFU)” value was 1021.874 RFU and 806.2549 RFU. For `OC[C@H]1NC[C@H](O)[C@@H](O)[C@@H]1O` [Compound 1-Deoxynojirimycin], the “Lipase (RFU)” value was 1029.468 RFU. For `CCCCCCCCCCCCCCCCCO` [Compound 1-Heptadecanol, 1-Heptadecanol], the “Lipase (RFU)” value was 803.2986 RFU. For `CCCCCCO` [Compound 1-Hexanol], the “Lipase (RFU)” value was 1054.453 RFU and 1051.532 RFU. With `OC[C@H]1O[C@@](CO)(OC[C@@]2(O[C@H]3O[C@H](CO)[C@@H](O)[C@H](O)[C@H]3O)O[C@H](CO)[C@@H](O)[C@@H]2O)[C@@H](O)[C@@H]1O` [Compound 1-Kestose] the “Lipase (RFU)” value was 1115.168 RFU. In the case of `CCCCCCCCO` [Compound 1-Octanol], the “Lipase (RFU)” value is reported as 882.5398 RFU. In the case of `O=c1[nH]c2ccccc2o1` [Compound 2-Benzoxazolinone, 2-Benzoxazolinone], the “Lipase (RFU)” value is reported as 985.9488 RFU. `C[C@]12CC[C@@H]3c4cc(O)c(O)cc4CC[C@H]3[C@@H]1CC[C@@H]2O` [Compound 2-Hydroxyestradiol] was tested, and the “Lipase (RFU)” value was 1214.209 RFU. In the case of `COc1cc2c(cc1O)CC[C@@H]1[C@@H]2CC[C@]2(C)[C@@H](O)CC[C@@H]12` [Compound 2-Methoxyestradiol], the “Lipase (RFU)” value is reported as 884.0231 RFU. For `COc1cc2c(cc1O)CC[C@@H]1[C@@H]2CC[C@]2(C)C(=O)CC[C@@H]12` [Compound 2-Methoxyestrone], the “Lipase (RFU)” value was 970.0321 RFU. `Cc1nc2ccccc2o1` [Compound 2-Methylbenzoxazole, 2-Methylbenzoxazole] was tested, and the “Lipase (RFU)” value was 887.776 RFU. `COc1nccc(N)n1` [Compound 2-O-Methylcytosine] was tested, and the “Lipase (RFU)” value was 1109.623 RFU. For `NC(=O)Cc1ccccc1` [Compound 2-Phenylacetamide, 2-Phenylacetamide], the “Lipase (RFU)” value was 955.8815 RFU. `CCCCCCCCCC(C)=O` [Compound 2-Undecanone, 2-Undecanone] was tested, and the “Lipase (RFU)” value was 1119.854 RFU. For `N[C@@H](Cc1ccc(O)c(Cl)c1)C(=O)O` [Compound 3-Chloro-L-tyrosine, 3-Chloro-L-tyrosine], the “Lipase (RFU)” value was 1117.619 RFU. With `Nc1c(O)cccc1C(=O)CC(N)C(=O)O` (stereo not shown) [Compound 3-Hydroxykynurenine] the “Lipase (RFU)” value was 1303.264 RFU. For `COc1c(O)cc2oc3cc4c(c(O)c3c(=O)c2c1CC=C(C)C)CCC(C)(C)O4` [Compound 3-Isomangostin], the “Lipase (RFU)” value was 1135.455 RFU. In the case of `COc1cc(CCN)ccc1O` [Compound 3-Methoxytyramine, 3-Methoxytyramine], the “Lipase (RFU)” value is reported as 821.2607 RFU. `COc1c(-c2ccccc2)oc2cc(O)cc(O)c2c1=O` [Compound 3-O-Methylgalangin] was tested, and the “Lipase (RFU)” value was 819.4334 RFU. For `O=c1cc(O)c2ccccc2o1` [Compound 4-Hydroxycoumarin, 4-Hydroxycoumarin], the “Lipase (RFU)” value was 929.4704 RFU. `COc1ccc(C(=O)/C=C/c2ccc(O)cc2)c(O)c1CC=C(C)C` [Compound 4-Hydroxyderricin] was tested, and the “Lipase (RFU)” value was 842.4877 RFU. In the case of `C[C@]12CC[C@@H]3c4ccc(O)c(O)c4CC[C@H]3[C@@H]1CCC2=O` [Compound 4-Hydroxyestrone], the “Lipase (RFU)” value is reported as 1068.255 RFU. In the case of `CCCCCC(O)/C=C/C=O` (stereo not shown) [Compound 4-Hydroxynonenal, 4-Hydroxynonenal], the “Lipase (RFU)” value is reported as 827.4103 RFU. `COc1ccc(C)cc1` [Compound 4-Methylanisole, 4-Methylanisole] was tested, and the “Lipase (RFU)” value was 864.3612 RFU and 916.5396 RFU. In the case of `CC(C)(C)CC(C)(C)c1ccc(O)cc1` [Compound 4-tert-Octylphenol, 4-tert-Octylphenol], the “Lipase (RFU)” value is reported as 868.4892 RFU. With `COc1ccc(-c2cc(=O)c3c(O)c(OC)c(OC)c(OC)c3o2)cc1OC` [Compound 5-O-Demethylnobiletin] the “Lipase (RFU)” value was 860.071 RFU. In the case of `C[C@H](O)[C@H](O)c1cnc2nc(N)[nH]c(=O)c2n1` [Compound 6-Biopterin], the “Lipase (RFU)” value is reported as 1286.983 RFU. `COc1cc2c(CCNC(C)=O)c[nH]c2cc1O` [Compound 6-Hydroxymelatonin] was tested, and the “Lipase (RFU)” value was 976.0382 RFU. `CC(C)CCC[C@@H](C)[C@H]1CC[C@H]2C3=CC=C4C[C@@H](O)CC[C@]4(C)[C@H]3CC[C@]12C` [Compound 7-Dehydrocholesterol] was tested, and the “Lipase (RFU)” value was 820.8412 RFU. For `C[n+]1cn([C@@H]2O[C@H](CO)[C@@H](O)[C@H]2O)c2nc(N)[nH]c(=O)c21` [Compound 7-Methylguanosine, 7-Methylguanosine], the “Lipase (RFU)” value was 974.6149 RFU. For `CC(C)=CCc1c(O)c(CC=C(C)C)c2oc3c(O)cccc3c(=O)c2c1O` [Compound 8-Deoxygartanin], the “Lipase (RFU)” value was 1168.142 RFU. In the case of `CCCCCCC[C@H](O)CC(=O)CCc1ccc(O)c(OC)c1` [Compound 8-Gingerol], the “Lipase (RFU)” value is reported as 724.4815 RFU. For `COc1c2ccoc2c(O)c2oc(=O)ccc12` [Compound 8-Hydroxybergapten], the “Lipase (RFU)” value was 800.3718 RFU. In the case of `CCCCCCCCC[C@H](O)CC(=O)CCc1ccc(O)c(OC)c1` [Compound 10-Gingerol], the “Lipase (RFU)” value is reported as 817.7781 RFU. For `CC(=O)C1=CC[C@H]2[C@@H]3CCC4=CC(=O)CC[C@]4(C)[C@H]3CC[C@]12C` [Compound 16-Dehydroprogesterone], the “Lipase (RFU)” value was 1000.658 RFU. For `CC(=O)[C@@]1(O)CC[C@H]2[C@@H]3CC=C4C[C@@H](O)CC[C@]4(C)[C@H]3CC[C@@]21C` [Compound 17a-Hydroxypregnenolone], the “Lipase (RFU)” value was 861.6395 RFU. With `C[C@]12CCC(=O)C=C1CC[C@@H]1[C@@H]2C(=O)C[C@@]2(C)[C@H]1CC[C@]2(O)C(=O)CO` [Cortisone] the “Lipase (RFU)” value was 1233.864 RFU. In the case of `c1ccc2c(c1)CCO2` [Coumaran], the “Lipase (RFU)” value is reported as 980.2989 RFU. With `COc1cc(C)ccc1O` [Creosol] the “Lipase (RFU)” value was 835.9293 RFU and 462.1743 RFU. `O=C(/C=C/c1ccc(O)c(O)c1)O[C@H]1[C@H](O)C[C@](O)(C(=O)O)C[C@H]1O` [Cryptochlorogenic acid] was tested, and the “Lipase (RFU)” value was 1264.679 RFU. For `CC(=O)OC(C)(C)/C=C/C(=O)[C@](C)(O)[C@H]1[C@H](O)C[C@@]2(C)[C@@H]3CC=C4[C@H](C[C@H](O)C(=O)C4(C)C)[C@]3(C)C(=O)C[C@]12C` [Cucurbitacin B], the “Lipase (RFU)” value was 789.0588 RFU. In the case of `CC(C)(O)/C=C/C(=O)[C@](C)(O)[C@H]1[C@H](O)C[C@@]2(C)[C@@H]3CC=C4[C@@H](C[C@H](O)C(=O)C4(C)C)[C@]3(C)C(=O)C[C@]12C` [Cucurbitacin D], the “Lipase (RFU)” value is reported as 937.0398 RFU. `CC(=O)OC(C)(C)/C=C/C(=O)[C@](C)(O)[C@H]1[C@H](O)C[C@@]2(C)[C@@H]3CC=C4[C@@H](C=C(O)C(=O)C4(C)C)[C@]3(C)C(=O)C[C@]12C` [Cucurbitacin E] was tested, and the “Lipase (RFU)” value was 641.6726 RFU. In the case of `Nc1nc2c(ncn2[C@@H]2O[C@@H]3COP(=O)([O-])O[C@H]3[C@H]2O)c(=O)[nH]1.[Na+]` [Cyclic GMP (sodium)], the “Lipase (RFU)” value is reported as 1109.907 RFU. `CC(=O)N[C@@H]1C(O)O[C@H](CO)[C@@H](O)[C@@H]1O` (stereo partly drawn) [Cyclic N-Acetyl-D-mannosamine] was tested, and the “Lipase (RFU)” value was 868.6631 RFU. `O=C(O)C(F)(F)F.O=C1N[C@@H](Cc2cnc[nH]2)C(=O)N2CCC[C@@H]12` [Cyclo(his-pro) (TFA)] was tested, and the “Lipase (RFU)” value was 956.1787 RFU. `C=C(CO)C(=O)O[C@H]1CC(=C)[C@@H]2C[C@H](O)C(=C)[C@@H]2[C@H]2OC(=O)C(=C)[C@@H]21` [Cynaropicrin] was tested, and the “Lipase (RFU)” value was 1182.791 RFU. In the case of `O=c1cc(-c2ccc(O)c(O)c2)oc2cc(O[C@@H]3O[C@H](CO)[C@@H](O)[C@H](O)[C@H]3O)cc(O)c12` [Cynaroside], the “Lipase (RFU)” value is reported as 1111.46 RFU. For `N[C@@H](CS)C(=O)NCC(=O)O.O=C(O)C(F)(F)F` [Cysteinylglycine (TFA)], the “Lipase (RFU)” value was 954.0897 RFU. For `Nc1ccn([C@@H]2O[C@H](COP(=O)([O-])OP(=O)([O-])OP(=O)(O)O)[C@@H](O)[C@H]2O)c(=O)n1.[Na+].[Na+]` [Cytidine-5′-triphosphate (disodium)], the “Lipase (RFU)” value was 1141.901 RFU. `O=C(O)C(O)COP(=O)(O)O` [D-3-Phospho-Glyceric Acid] was tested, and the “Lipase (RFU)” value was 875.2279 RFU. For `OC[C@H]1O[C@@H](O[C@H]2[C@H](O)[C@@H](O)[C@H](O)O[C@@H]2CO)[C@H](O)[C@@H](O)[C@@H]1O` [D-(+)-Cellobiose], the “Lipase (RFU)” value was 821.3157 RFU.
